Patent US8629242B2, “Methods of inhibiting calcineurin with ApoE analogs” (Cognosci, Inc., priority 2007, dated 2014)

Test system: peritoneal macrophages
Assay: In vitro LPS+IFN-γ challenge of macrophages from COG 133-treated EAE mice
Type: cell-based
Conditions: macrophages collected dpi 35 from treated mice, vs saline-treated mice, p<0.001
Procedure: FIG. 4. In vivo exposure to COG 133 suppressed in vitro production of inflammatory effectors by peritoneal macrophages. TNF-α (A) and IL-6 (B) were measured by ELISA, and nitrite in culture medium was measured by a Sievers NO Analyzer (C). Statistical analysis was performed by two-tailed student's t test and significance was shown as ** (p<0.01) and *** (p<0.001).
To examine the effect of COG 133 (SEQ ID NO: 1) treatment on activation of macrophages in EAE mice, macrophages were collected from a subset of saline and COG 133-treated mice on dpi 35 and then challenged in vitro with the immune stimulators lipopolysaccharide and interferon-γ (LPS+IFN-γ). Nitrite in culture medium was measured by a Sievers NO Analyzer and TNF-α and IL-6 were measured by ELISA.

CC(=O)N[C@@H](CC(C)C)C(=O)N[C@@H](CCCNC(=N)N)C(=O)N[C@H](C(=O)N[C@@H](CCCNC(=N)N)C(=O)N[C@@H](CC(C)C)C(=O)N[C@@H](C)C(=O)N[C@@H](CO)C(=O)N[C@@H](Cc1c[nH]cn1)C(=O)N[C@@H](CC(C)C)C(=O)N[C@@H](CCCNC(=N)N)C(=O)N[C@@H](CCCCN)C(=O)N[C@@H](CC(C)C)C(=O)N[C@@H](CCCNC(=N)N)C(=O)N[C@@H](CCCCN)C(=O)N[C@@H](CCCNC(=N)N)C(=O)N[C@@H](CC(C)C)C(=O)N[C@@H](CC(C)C)C(N)=O)C(C)C [COG 133]
release of IL-6: significantly lower response
release of NO: significantly lower levels of NO
release of TNF-α: significantly lower response
